For 14 compounds, IC50 and inhibition results are on record in patent US9675606B2, “2-amino-3-(imidazol-2-yl)-pyridin-4-one derivatives and their use as VEGF receptor kinase inhibitors” (SANOFI, priority 2011, dated 2017).

Assay [1] has as its target T1, VEGFR-3 (Homo sapiens, UniProt P35916).
T1 construct: expressed in transfected cells; host or cells: HEK293T cells, transient transfection with Fugene-6
Briefly: Effect of compounds on VEGFR-3 auto-phosphorylation in HEK cells (ELISA). The class given is cell-based. Particulars: autophosphorylation of VEGFR-3-Flag overexpressed in HEK293T cells, 1 h incubation with compound. The protocol:
Effect of Compounds on VEGFR-3 Auto-Phosphorylation in HEK Cells
The effects of compounds in blocking VEGFR-3 autophosphorylation were quatified by ELISA after Overexpression of VEGFR-3 in HEK cells. HEK293T cells were maintained in MEM supplemented with 10% foetal calf serum (FCS) and glutamine. The day before transfection, […] were seeded on 48 wells plates and transfection was done using Fugene-6 (Roche, Basel). Fugene-6 (18 μL) was preincubated for 5 min with 282 μl of optimem. Then 3 μg DNA corresponding VFGR-3-Flag was added and left at room temperature during 10 min before distributing 200 μl on HEK cells. After 24 h, the medium was removed and replaced by a new one without serum and incubated for 1 h with different concentrations (ranging from 3 to 1000 nM) of each compound. After additional 30 min incubation with Orthovanadate (0.4 mM), cells were washed with cold PBS supplemented by orthovanadate and then lysed with 300 μl of RIPA buffer. Lysates were then centrifuged during 10 min at 10000 g. Supernatants (75 μl) were distributed in duplicate on 96 well plate precoated with the anti-Flag and left during 1 hour at room temperature. After 3 washes with TBS buffer containing 0.5% tween 20, the anti-phospho-tyrosine conjugated to the HRP was added and incubated for 1 hour at room temperature. Wells were then washed 3 times with TBS buffer containing tween 20 (0.5%) and MgCl2 (2 mM). The reaction was stopped with 50 μl of H2SO4 (2 N) and the signal was read at Envision at 485 and 530.
The concentration-response curves were analyzed with internal software Biost@t-SPEED v2.0 using the 4-parameter logistic model according to Ratkovsky and Reedy (Ratkovsky D A., Reedy T J. Choosing near-linear parameters in the four parameters logistic model radioligands and related assays. Biometrics 1986 September 42(3):575-82.)

The target of assay [2] is T1, VEGFR-3. Briefly: Ex vivo assay: VEGFR-3 autophosphorylation in HEK cells incubated with plasma of mice dosed p.o. Particulars: HEK293, mouse, transfected HEK cells incubated with plasma (10%), read-out: Ex vivo inhibition (%) At the time. More on the design: species or system male Balb/c mice. The protocol: Protocol for administration of the products to the mice:
The products are prepared in a mortar with 0.5% Tween 80 and 0.6% methylcellulose qs final volume. The suspensions are administered by gavage (10 ml/kg) to male Balb/c mice 8 to 15 weeks old. Three hours or 6 hours after single oral administrations of 30 mg/kg, animals were anaesthetized with pentobarbital and blood samples (400 μL) were collected from cava vein and transferred into glass tubes containing lithium heparin. After centrifugation (1500-2000 g for 10 minutes), plasma samples were frozen at a temperature close to −20° C. until analysis.
In order to detect the ex vivo activity of the products in the plasmas, we have used the autophosphorylation assay in HEK cells described earlier. For this purpose, transfected cells were incubated with plasma (10%) instead of compounds. Results are expressed as percent of inhibition of VEGFR-3 autophosphorylation in comparison to untreated cells (maximum autophosphorylation) and to untransfected cells (background).
Results are expressed as a percentage of inhibition of VEGFR-3 auto-phosphorylation of in HEK cells, in presence of a plasma sample collected (at a time), after per os (p.o.) administration of compounds. In order to evaluate the increase of this activity for compounds of the invention, a comparison with compounds of the prior art (WO 2009/007535) and subjected to the same measurement is made in table 3.

[3] abbreviates: 6 h after single oral administration of 30 mg/kg to male Balb/c mice.
Setting [4] is: 3 h after single oral administration of 30 mg/kg to male Balb/c mice.

Structures are written as SMILES. Like-named read-outs stand apart in the source and are kept apart here.

T1 sequence (P35916 25-1363, species assumed): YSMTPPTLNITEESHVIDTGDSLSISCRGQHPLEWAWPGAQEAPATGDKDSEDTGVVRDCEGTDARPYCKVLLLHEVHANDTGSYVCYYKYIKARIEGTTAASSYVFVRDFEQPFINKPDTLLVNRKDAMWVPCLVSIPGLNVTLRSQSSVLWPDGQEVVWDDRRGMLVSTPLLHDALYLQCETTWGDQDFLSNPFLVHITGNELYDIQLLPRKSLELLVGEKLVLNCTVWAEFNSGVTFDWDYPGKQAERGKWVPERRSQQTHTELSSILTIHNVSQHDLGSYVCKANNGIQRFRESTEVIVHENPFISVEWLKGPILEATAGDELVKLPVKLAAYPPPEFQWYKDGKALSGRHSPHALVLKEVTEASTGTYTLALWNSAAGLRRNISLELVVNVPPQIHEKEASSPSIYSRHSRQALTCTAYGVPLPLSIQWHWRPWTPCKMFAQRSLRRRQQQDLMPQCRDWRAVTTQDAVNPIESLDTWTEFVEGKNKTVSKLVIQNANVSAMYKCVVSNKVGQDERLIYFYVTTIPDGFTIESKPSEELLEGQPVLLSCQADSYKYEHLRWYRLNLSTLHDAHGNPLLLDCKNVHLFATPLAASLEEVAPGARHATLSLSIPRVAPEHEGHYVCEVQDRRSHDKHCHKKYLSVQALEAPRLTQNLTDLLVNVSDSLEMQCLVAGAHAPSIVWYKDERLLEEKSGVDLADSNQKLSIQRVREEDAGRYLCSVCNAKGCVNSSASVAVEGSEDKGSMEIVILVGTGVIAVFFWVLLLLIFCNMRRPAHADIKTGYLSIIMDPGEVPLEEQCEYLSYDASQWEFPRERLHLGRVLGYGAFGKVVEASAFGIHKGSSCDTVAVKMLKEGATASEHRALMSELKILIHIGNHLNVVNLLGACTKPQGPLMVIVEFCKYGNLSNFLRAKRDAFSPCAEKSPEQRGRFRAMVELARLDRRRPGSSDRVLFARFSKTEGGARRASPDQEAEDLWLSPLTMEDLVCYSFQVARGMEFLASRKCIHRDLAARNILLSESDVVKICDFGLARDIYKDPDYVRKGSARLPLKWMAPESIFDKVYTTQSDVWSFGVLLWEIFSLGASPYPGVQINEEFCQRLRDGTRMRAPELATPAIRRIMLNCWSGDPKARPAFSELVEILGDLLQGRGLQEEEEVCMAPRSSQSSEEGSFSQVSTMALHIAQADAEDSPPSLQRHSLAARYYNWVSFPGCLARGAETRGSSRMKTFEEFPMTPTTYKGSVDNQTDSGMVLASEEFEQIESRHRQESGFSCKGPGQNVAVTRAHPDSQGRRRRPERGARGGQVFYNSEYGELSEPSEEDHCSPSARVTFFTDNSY

Take `CCn1c(N)c(-c2ncc[nH]2)c(=O)c2ccc(C#CC(C)O)nc21` (racemic) [Compound 22, 2-Amino-1-ethyl-7-(3-hydroxybut-1-yn-1-yl)-3-(1H-imidazol-2-yl)-1,8-naphthyridin-4(1H)-one]: in assay [1], the half-maximal inhibitory concentration (IC50) worked out at 38 nM. For the same compound, the inhibition at 30 mg/kg in assay [2] (setting [3]) stood at 26%. On to `CCn1c(N)c(-c2ncc[nH]2)c(=O)c2ccc(C#C[C@@](C)(O)COC)nc21` [Compound 1, 2-Amino-1-ethyl-7-((3R)-3-hydroxy-4-methoxy-3-methyl-but-1-ynyl)-3-(1H-imidazol-2-yl)-1H-[1,8]naphthyridin-4-one], for which the IC50 in assay [1] was found to be 25 nM. For the same compound, in assay [2] (setting [3]), the inhibition at 30 mg/kg came to 83%. In the same order, the values of `CCn1c(N)c(-c2ncc[nH]2)c(=O)c2ccc(C#CC3(O)CCC3)nc21` [Compound 13, 2-Amino-1-ethyl-7-[(1-hydroxycyclobutyl)ethynyl]-3-(1H-imidazol-2-yl)-1,8-naphthyridin-4(1H)-one] are 41 nM and 23%. `CCn1c(N)c(-c2ncc[nH]2)c(=O)c2ccc(C#CC(C)(O)CC)nc21` (racemic) [Compound 16, 2-Amino-1-ethyl-7-(3-hydroxy-3-methylpent-1-yn-1-yl)-3-(1H-imidazol-2-yl)-1,8-naphthyridin-4(1H)-one]: the IC50 in assay [1] amounted to 119 nM. The inhibition at 30 mg/kg in assay [2] (setting [4]) was 48%. On to `CCn1c(N)c(-c2ncc[nH]2)c(=O)c2ccc(C#CC(C)(O)c3ccccc3)nc21` (racemic) [Compound 17, 2-Amino-1-ethyl-7-(3-hydroxy-3-phenylbut-1-yn-1-yl)-3-(1H-imidazol-2-yl)-1,8-naphthyridin-4(1H)-one], for which the IC50 in assay [1] is 13 nM. In assay [2] (setting [3]), the inhibition at 30 mg/kg amounted to 37%.

For `CCn1c(N)c(-c2nc(C)c[nH]2)c(=O)c2ccc(C#C[C@@](C)(O)COC)nc21` [Compound 5, 2-Amino-1-ethyl-7-[(3R)-3-hydroxy-4-methoxy-3-methylbut-1-yn-1-yl]-3-(4-methyl-1H-imidazol-2-yl)-1,8-naphthyridin-4(1H)-one], the concentration for half-maximal inhibition (IC50) in assay [1] is 45 nM. In addition, the inhibition at 30 mg/kg in assay [2] (setting [3]) was found to be 86%. With `CCC(O)C#Cc1ccc2c(=O)c(-c3ncc[nH]3)c(N)n(CC)c2n1` (racemic) [Compound 23, 2-Amino-1-ethyl-7-(3-hydroxypent-1-yn-1-yl)-3-(1H-imidazol-2-yl)-1,8-naphthyridin-4(1H)-one], in assay [1], the 50% inhibitory concentration (IC50) came to 19 nM.

As to `CCn1c(N)c(-c2ncc[nH]2)c(=O)c2ccc(C#CC(O)C(C)C)nc21` (racemic) [Compound 25, 2-Amino-1-ethyl-7-(3-hydroxy-4-methylpent-1-yn-1-yl)-3-(1H-imidazol-2-yl)-1,8-naphthyridin-4(1H)-one], the IC50 in assay [1] turned out to be 303 nM.

Consider `CCn1c(N)c(-c2ncc[nH]2)c(=O)c2ccc(C#CC(C)(O)c3cccc(F)c3)nc21` (racemic) [Compound 18, 2-Amino-1-ethyl-7-[3-(3-fluorophenyl)-3-hydroxybut-1-yn-1-yl]-3-(1H-imidazol-2-yl)-1,8-naphthyridin-4(1H)-one], for which, in assay [1], the IC50 stood at 36 nM. Consider `CCC(O)C#Cc1ccc2c(=O)c(-c3ncc[nH]3)c(N)n(CCOC)c2n1` (racemic) [Compound 12, 2-Amino-7-(3-hydroxypent-1-yn-1-yl)-3-(1H-imidazol-2-yl)-1-(2-methoxyethyl)-1,8-naphthyridin-4(1H)-one], for which the IC50 in assay [1] worked out at 166 nM. Still for that read-out and setting: as for `CCC(O)C#Cc1ccc2c(=O)c(-c3ncc[nH]3)c(N)n(CCCOC)c2n1` (racemic) [Compound 11, 2-Amino-7-(3-hydroxypent-1-yn-1-yl)-3-(1H-imidazol-2-yl)-1-(3-methoxypropyl)-1,8-naphthyridin-4(1H)-one], the figure is 334 nM. With `CCn1c(N)c(-c2ncc[nH]2)c(=O)c2ccc(C#C[C@](C)(O)CO)nc21` [Compound 28, 2-Amino-7-((3S)3,4-dihydroxy-3-methyl-but-1-ynyl)-1-ethyl-3-(1H-imidazol-2-yl)-1,8-naphthyridin-4(1H)-one], the IC50 in assay [1] worked out at 153 nM. For the compound `CCn1c(N)c(-c2ncc[nH]2)c(=O)c2ccc(C#CC(C)(O)CO)nc21` (racemic) [Compound 3, 2-Amino-7-(3,4-dihydroxy-3-methyl-but-1-ynyl)-1-ethyl-3-(1H-imidazol-2-yl)-1H-[1,8]naphthyridin-4-one], the IC50 in assay [1] was found to be 125 nM. In addition, the inhibition at 30 mg/kg in assay [2] (setting [4]) turned out to be 51%. For the compound `CCn1c(N)c(-c2ncc[nH]2)c(=O)c2ccc(C#CC(O)c3ccccc3)nc21` (racemic) [Compound 26, 2-Amino-1-ethyl-7-(3-hydroxy-3-phenylprop-1-yn-1-yl)-3-(1H-imidazol-2-yl)-1,8-naphthyridin-4(1H)-one], the IC50 in assay [1] was determined as 120 nM.
